Results published in patent US8816078B2, “Acidic gas removal by aqueous amine solvents” (Board of Regents, The University of Texas System, priority 2010, dated 2014).
Like-named read-outs stand apart in the source and are kept apart here.

Experiments:
[1] = Cyclic CO2 capacity calculated from the regressed VLE model; format: physicochemical
[2] = Solubility measurements of CO2 loaded PZ/1-MPZ/1,4-DMPZ blends; format: physicochemical
Experimental: Solubility measurements for CO2 loaded 3.9 m PZ/3.9 m 1-MPZ/0.2 m 1,4-DMPZ and 3.75 m PZ/3.75 m 1-MPZ/0.5 m 1,4-DMPZ solutions were taken to predict the solubility envelope of these blends. The solubility of the blends at varying loadings and temperatures are shown in FIG. 7 for the 3.9 m PZ/3.9 m 1-MPZ/0.2 m 1,4-DMPZ blend and in FIG. 8 for the 3.75 m PZ/3.75 m 1-MPZ/0.5 m 1,4-DMPZ blend. […] At 0° C., the 8 m blend: 3.75 m PZ/3.75 m 1-MPZ/0.5 m […] was soluble at 2° C. with a lean loading of 0.17 mol CO2/mol alkalinity, in contrast to 8 m PZ, which must be operated at loading above 0.3 to avoid solids precipitation.
A maximum CO2 loading of 0.41 and 0.39 was obtained for the 3.9 m PZ/3.9 m 1-MPZ/0.2 m 1,4-DMPZ blend and the 3.75 m PZ/3.75 m 1-MPZ/0.5 m 1,4 DMPZ blend respectively at room temperature without any solid precipitation. Intermediary loaded solutions were prepared by appropriately mixing the rich loaded and zero loaded solutions and observed at temperatures between 0° C. and the melting point of the solution.

[3] = for PCO2* at 40° C.: calculated from CO2 solubility curves
[4] = Heat of CO2 absorption calculated from the VLE model; format: physicochemical
Experimental: VLE models of CO2 partial pressure were regressed from experimental data to calculate CO2 capacity and enthalpy of CO2 absorption (ΔHabs).
Heat of absorption was calculated from the model mentioned above by applying the following thermodynamic equation: […]
Heat of absorption was calculated from the model mentioned above by applying the Gibbs-Helmholtz equation: […]
The heat absorption of CO2 at a 1.5 kPa, which is an average CO2 partial pressure for lean and rich solutions, was calculated.

[5] = Freeman et al., 2009; cited from earlier work
[6] = Solubility and solids precipitation limits of amines in water; format: physicochemical
[7] = 25° C.; cited from earlier work
[8] = Conc. (m): MDEA/PZ 7/2, PZ 8, MEA 7, HEP 7.7, AEP 6, 2-PE 8, AMP 4.8, EDA 12, DGA 10, PZ-MPZ 4/4, MPZ 8
[9] = CO2 Loading 0.035 mol/mole Alkalinity
[10] = CO2 Loading 0.037 mol/mole Alkalinity
[11] = CO2 Loading 0.102 mol/mole Alkalinity
[12] = CO2 Loading 0.104 mol/mole Alkalinity
[13] = CO2 Loading 0.156 mol/mole Alkalinity
[14] = CO2 Loading 0.158 mol/mole Alkalinity
[15] = CO2 Loading 0.209 mol/mole Alkalinity
[16] = CO2 Loading 0.217 mol/mole Alkalinity
[17] = CO2 Loading 0.251 mol/mole Alkalinity
[18] = CO2 Loading 0.266 mol/mole Alkalinity
[19] = CO2 Loading 0.303 mol/mole Alkalinity
[20] = CO2 Loading 0.313 mol/mole Alkalinity, listed as 8 m PZ
[21] = CO2 Loading 0.313 mol/mole Alkalinity, listed as 10 m PZ
[22] = CO2 Loading 0.330 mol/mole Alkalinity

With `C1CNCCN1` [PZ, piperazine] the “CO2 Capacity” value [1, 8] was 0.79 mol/kg (water + amine), the “cyclic CO2 capacity” value ([1]; difference between lean and rich CO2 loading at 500 Pa and 5,000 Pa CO2 partial pressure) was 0.79 mol CO2/kg (water+amine) and the “CO2 loadings at which solid H+PZCOO−.H2O is formed” value [2] was ≥ 0.43. The “loading above which the solvent must be operated to avoid solids precipitation” value ([2]; 0° C.) was “above 0.3”, the “CO2 loadings at which solid PZ.6H2O is formed” value ([2]; 25° C.) was ≤ 0.22 and the “PCO2* at 40° C.” value ([3]; CO2 Loading 0 mol/mole Alkalinity) was 0.0014 kPa. The “Transition Temp” value ([3]; CO2 Loading 0 mol/mole Alkalinity, listed as 8 m PZ) was 43.0 °C, the “Transition Temp” value ([3]; CO2 Loading 0 mol/mole Alkalinity, listed as 10 m PZ) was 43 °C and the “Transition Temp” value [3, 9] was 40.0 °C. For the same molecule, the “PCO2* at 40° C.” value [3, 9] was 0.0023 kPa, the “Transition Temp” value [3, 10] was 40.5 °C and the “PCO2* at 40° C.” value [3, 10] was 0.0023 kPa. The “Transition Temp” value [3, 11] was 38.5 °C, the “PCO2* at 40° C.” value [3, 11] was 0.0068 kPa and the “Transition Temp” value [3, 12] was 38.5 °C. For the same molecule, the “PCO2* at 40° C.” value [3, 12] was 0.0070 kPa, the “Transition Temp” value [3, 13] was 35 °C and the “PCO2* at 40° C.” value [3, 13] was 0.0179 kPa. For the same molecule, the “Transition Temp” value [3, 14] was 33.0 °C, the “PCO2* at 40° C.” value [3, 14] was 0.0185 kPa and the “Transition Temp” value [3, 15] was 26.5 °C. The “PCO2* at 40° C.” value [3, 15] was 0.0499 kPa, the “Transition Temp” value [3, 16] was 27 °C and the “PCO2* at 40° C.” value [3, 16] was 0.0589 kPa. The “Transition Temp” value [3, 17] was 18.0 °C, the “PCO2* at 40° C.” value [3, 17] was 0.1216 kPa and the “Transition Temp” value [3, 18] was 18 °C. The “PCO2* at 40° C.” value [3, 18] was 0.1679 kPa, the “Transition Temp” value [3, 19] was 3.0 °C and the “PCO2* at 40° C.” value [3, 19] was 0.3892 kPa. The “PCO2* at 40° C.” value [3, 20] was 0.4862 kPa, the “PCO2* at 40° C.” value [3, 21] was 0.4830 kPa and the “Transition Temp” value [3, 20] was 0 °C. The “Transition Temp” value [3, 21] was 5.5 °C, the “Transition Temp” value [3, 22] was 0 °C and the “PCO2* at 40° C.” value [3, 22] was 0.7252 kPa. The “CO2 loading needed to maintain an aqueous solution” value ([3]; room temperature (21° C.)) was 0.23 mole CO2 per mole alkalinity, the “highest CO2 loading usable without risk of solid precipitation” value ([3]; solvent at 0° C.) was ≤ 0.4 moles CO2/equiv PZ and the “lowest CO2 loading usable without risk of solid precipitation” value ([3]; solvent at 0° C.) was ≥ 0.3 moles CO2/equiv PZ. For the same molecule, the “Heat of CO2 absorption (ΔHabs)” value ([4]; 8 m MPZ, 4 m PZ/4 m MPZ blend, 8 m PZ) was 16.7 kcal/mol, the “ΔHabs@PCO2 = 1.5 kPa” value [4, 8] was 16.7 kcal/mol and the “heat absorption of CO2” value ([4]; at 1.5 kPa CO2 partial pressure) was 16.7 kcal/mol. For the same molecule, the “temperature up to which highly resistant to thermal degradation” value [5] was “up to 150 °C”, the oxidative degradation [6] was “resistant to oxidative degradation” and the “CO2 loading below which PZ.6 H2O solids precipitate” value ([6]; 0° C.) was “less than 0.3”. The “CO2 loading above which protonated piperazine carbamate precipitates” value ([6]; ambient temperature) was “greater than 0.45 moles/equivalent amine”, the solubility in water ([6]; zero CO2 loading, ambient temperatures, precipitation of PZ.6H2O) was “about 2 m” and the solubility in water [7] was “less than 2 M”.
